Where no end group is shown, it is not given here.
Assays:
[1] = tested on: C. albicans blastoconidia; conditions: for C. albicans: % killing at 50 μM dose (scoring): highest response seen used in the scoring; for anti-fungal (fungicidal) activity, in words: C. albicans blastoconidia; for C. albicans: LD50 (μM) for % killing: blastoconidia, 1 h at 37° C., pH 7.4
Excerpt: C. albicans is a dimorphic yeast. It can exist in a yeast or blastoconidial form, which upon germination develops into the hyphal or germinated form. While the germinated form is considered to be more invasive, most of the C. albicans isolates harvested from the oral cavities of healthy individuals appear to be in the blastoconidial form. (Arendorf, T. M. et al. (1980), Arch. Oral Biol. 25:1-10; Gow, N.A.R. et al. (1987), Criti. Rev. Microbiol. 15:73-78; Odds, F. C. (1988), Candida and Candidosis, 2nd ed., Bailliere Tindall, London, England). Anti-fungal activity of synthetic histatin 5, histatin-based peptide 113, peptides based on portions of the amino acid sequences of histatin-based peptide 113 and peptides derived from histatin-based peptide 113 with specified amino acid substitutions was measured in assays designed to test the effectiveness of the peptides against the blastoconidia form of Candida (Table 1). These assays, which measure killing of blastoconidia of C. albicans, are described in Xu et al., which is herein incorporated by reference. (Xu, T. et al. (1991), Infect. Immun. 59(8):2549-2554).
A well-described strain of C. albicans was used in the bioassay. This strain, ATCC 44505, was originally isolated from the human oral cavity. Cultures were stored at 4° C. on Sabouraud dextrose agar plates (Difco Laboratories, Detroit, Mich.) until use. Stationary phase growth cells were obtained following growth at 30° C. for 18 h on Sabouraud dextrose agar plates. Colonies were harvested and suspended in 10 mM potassium phosphate buffer (PPB), pH 7.4.
To initiate log phase growth, an aliquot of stock C. albicans was suspended in Sabouraud dextrose broth (Difco) and incubated at 30° C. in a shaking water bath. The growth phase was determined by taking aliquots of the culture at one hour intervals to monitor the optical density (O.D.) at 560 nm. […] Log phase cells were harvested and utilized in the blastoconidia killing assay in a manner identical to that described for stationary phase cells. A final concentration of 10^5 cells/ml (either stationary or log phase fungus) was used in all assays.
The standard suspension buffer utilized in the blastospore killing assay was 0.01M PPB, pH 7.4. An alternate suspension buffer, N-2-hydroxyethylpiperazine-N'-2-ethanesulfonic acids (HEPES; Sigma Chemical Co., St. Louis, Mo.), pH 7.4, can also be utilized.
a. For the killing of blastoconidia assay, 50 μl aliquots of cells (2×10^5 cells/ml) diluted in suspension buffer were allowed to attach to a polystyrene 96-well micro-titer plate (COSTAR, Cambridge, Mass.) for 15 min at room temperature, and then incubated with an equal volume of a histatin or histatin peptide in suspension buffer for 1 h at 37° C. Controls were carried out in the absence of the histatin or histatin peptide. After incubation, wells were washed three times by centrifugation at 1,000 xg for 5 min and covered with aliquots of molten Sabouraud dextrose broth (Difco) containing 2% agarose (Sigma) at 45° C. The plate was then incubated at 30° C. for 8 h. Under such conditions, live cells will divide and begin to form colonies, while dead cells will remain as single cells. To determine the percentage of blastoconidia killed, a total of 100 single cells and/or colonies were counted under a Nikon inverted microscope at 400× magnification and the extent of killing was calculated using the formula: [1-(number of colonies in treated sample)/(number of colonies in control)]×100%.
Data were obtained by calculating the mean and standard deviation from triplicate assays.

[2] = tested on: P. gingivalis hemagglutination of erythrocytes; assay: histatin peptide inhibition of hemagglutination assay; format: cell-based, Porphyromonas gingivalis; conditions: for Hemagglutination: lowest dose (μM) at which hemagglutination was observed using P. Gingivalis: 2 hours at room temperature, visual examination
Method: The P. gingivalis strain of Section C.(1) was also used for the hemagglutination assays. The bacterial growth and culture conditions were also the same as those described in Section C.(1).
A classic assay was utilized to determine the hemagglutination potential of the P. gingivalis strain. Microorganisms were inoculated into BFB broth and cultured overnight, for approximately 24 hours at 37° C. under strictly anaerobic conditions with continuous agitation on a minishaker (IKA-Labortechnik, Staufen i. Br., Germany). The bacteria were harvested by centrifugatin at 3,000 r.p.m. for 20 min, at 4° C., washed twice in 0.01M phosphate buffered saline (PBS), pH 7.4, and suspended in the same buffer to an optical density of 1.0 at 550 nm. […] One ml of blood was drawn each time, washed twice in PBS at 1,000 r.p.m. for 10 min at 4° C. and suspended in the same buffer at a 2% (v/v) final concentration. Fifty μl of the bacterial suspension were serially diluted in PBS (two-fold steps) in a 96-well U-bottom microplate (Costar, Cambridge, Mass.). Fifty μl of the erythrocyte suspension were added to each well. Controls without bacteria or erythrocytes were included. The microplate was slightly shaken and incubated at room temperature for 2 hours. Visible examination on a white background was used to determine hemagglutination. The amount of hemagglutination was rated as none,(-), moderate (+/-), or strong (+). Erythrocytes in control wells with PBS precipitated to the center of the well, whereas erythrocyte-bacteria aggregates precipitated at the periphery of the bottom. The hemagglutination titer was expressed as the reciprocal of the highest dilution of the bacterial suspension providing visible hemagglutination.
Preparation of erythrocyte and bacterial suspensions were the same as for the hemagglutination assay. Fifty μl of histatin peptide solutions were diluted in PBS in a U-bottom microplate, at various two-fold concentrations with 600 nmole/ml being the highest. The bacterial concentration utilized was normally twice the minimal concentration which gave strong hemagglutination. Equal volumes of the bacterial suspension were poured into the wells containing the histatin peptides. Finally, 50 μl of erythrocyte suspension were added in each well. The microplate was slightly shaken and incubated at room temperature for 2 hours. Controls were made by replacement of the peptide dilutions with PBS only. The experiments were conducted at least twice. The lowest histatin peptide concentration without hemagglutination (complete inhibition) was determined upon visual examination. The highest final histatin peptide concentration utilized was 100 nmole/ml.

Row | Substance | C. albicans: % killing at 50 μM dose (scoring) [1] | anti-fungal (fungicidal) activity, in words [1] | bacteria mediated hemagglutination inhibition, in words [2] | Hemagglutination: lowest dose (μM) at which hemagglutination was observed using P. Gingivalis [2] | C. albicans: LD50 (μM) for % killing [1] | anti-fungal activity at pH 4.0, in words ([1]; pH 4.0)
1 | AKRHHGYKR [peptide 120] | ++ (++20-50%) | C. albicans blastoconidia killing | bacteria mediated hemagglutination inhibition | 50 µM |  | 
2 | AKRHHGYKRK [peptide 119] | ++ (++20-50%) | C. albicans blastoconidia killing | bacteria mediated hemagglutination inhibition | 25 µM |  | 
3 | AKRHHGYKRKF [peptide 118] | ++++ (++++80-100%) | C. albicans blastoconidia killing | bacteria mediated hemagglutination inhibition | 6.25 µM |  | 
4 | AKRHHGYKRKFH [peptide 113] |  |  | bacteria mediated hemagglutination inhibition | 25 µM | 5.8 µM | essentially devoid of anti-fungal activity
5 | His 11: histatin 11 (SEQ ID NO: 11), subpeptide of peptide 113 (KRHHGYKR) | + (+<20%) |  | bacteria mediated hemagglutination inhibition | 100 µM |  | 
6 | KRHHGYKRKF [peptide 129] |  |  | bacteria mediated hemagglutination inhibition | 50 µM | 27 µM | 
7 | peptide 117: subpeptide of peptide 113 (SEQ ID NO: 19) (KRHHGYKRKFH) | ++++ (++++80-100%) | C. albicans blastoconidia killing | bacteria mediated hemagglutination inhibition |  |  | 
